Here are results for one molecule from patent US20130324606A1, “Ester Derivatives of Bimatoprost Compositions and Methods” (ALLERGAN, INC., priority 2011, published 2013).

SMILES strings stand for the structures.

One series concerns mouse skin. Description: Pathology assessment of mouse hair regrowth model. The following applies: histology, 0.03% active, vehicle control still in growth phase. The series is classed as in vivo, mice. From the text:
Histological samples from test subjects employed in the studies described in Example 12 were obtained for pathology assessment.

Series [1] is described as follows: Pharmacokinetic assessment of mouse hair regrowth model. Type of series: in vivo. The note with it: mice, 0.03% dermal daily ~60 uL, all measured time points, LC/MS-MS. As for the experimental part:
Female C57BL/6J mice (n=2) were assayed per time point per treatment group. Treatment groups: (1) vehicle; (2) 0.03% Cmpd IVa; (3) 0.03% Cmpd IIIb; (4) 0.03% Cmpd IVb; (5) 0.03% bimatoprost. Treatment dosing: dermal daily application of ˜60 uL test compound solution. Blood and skin pharmacokinetic time points were obtained at day 1 (1, 4, 8 and 24-hrs post-dose); day 2 (24-hrs post-dose); day 14 (24-hrs post-dose); and day 42 (28 days post day 14 dose). Bioanalysis employed LC/MS-MS.

Series [2] is described as follows: Partitioning in artificial sebum. Type of series: physicochemical. As for the experimental part:
Compounds bimatoprost, Cmpd IVa, and Cmpd IIIb were added to aqueous solution (1 mL, 2-20 ug/mL), with and without 1-20 mg artificial sebum. Samples were shaken for 16 hr at 37° C. Samples were then centrifuged (8000 RPM) for 15 min at room temperature, prior to collection of the aqueous solution. Samples were analyzed for concentration of compound without artificial sebum (i.e., Co) and with artificial sebum (i.e., Ci) by mass spectroscopy. Artificial sebum and water partition coefficient (Ksebum) was expressed as the concentration of drug in 1 g of artificial sebum divided by the concentration of drug in 1 g of aqueous solution, and was calculated as Ksebum=(Co−Ci)Waqueous/(Ci×Wsebum) (Eqn. 1), where W represents weight.
Artificial sebum was prepared as follows: 15% (w/w) squalene, 15% spermaceti, 10% coconut oil, 1.5% oleic acid, 5% palmitic acid, 2.4% cholesterol oleate, 10% paraffin wax, 10% olive oil, 25% cottonseed oil, 5% palmitoleic acid, 1.2% cholesterol. The melting point of the semi-liquid was 37° C.

As for `CCNC(=O)CCC/C=C\C[C@@H]1[C@@H](/C=C/[C@H](CCc2ccccc2)OC(C)=O)[C@H](O)C[C@@H]1O` [Cmpd IVa, 15-acetyl-bimatoprost], in the series with mouse skin, the “hair cycle phase at day-42” value is reported as “returned to the resting phase”. Moreover, in series [1], the “level in the systemic circulation” value is “most undetectable”. Moreover, the “phase in which the majority of compound remains” value in series [2] (artificial sebum / aqueous solution) is listed as “remain in the aqueous phase”. The “Ave. Ksebum (artificial sebum and water partition coefficient)” value in series [2] (n = 4, 16 hr at 37° C.) is on record as 5.1.
